Source: patent publication US20200345761A1, “PREVENTIVE AND/OR THERAPEUTIC AGENT FOR DEMENTIA” (MITOS CO., LTD., priority 2017, published 2020)

Experiments:
[1] = system: Alzheimer-type dementia; conditions: cited from earlier work
[2] = system: Alzheimer-type dementia patients
Text: Patients were selected on the basis of the following three criteria.
(1) Deterioration in the score occurs such that the ADAS-cog score based on formula [70−(MMSE×2.33)] (J. Caro et al., BMC Neurol 2002; 2:6.) or the ADAS-cog score calculated in terms of MMSE (Mini-Mental State Examination) exceeds 10.
Finally, 11 patients were selected, and treated with H2 gas.
Since the probability of suffering complications increases as the concentration of lithium in blood increases, the dosage of lithium carbonate was reduced (W. S. Waring, Toxicol Rev 2006; 25:221-230.). The patients of the treatment group were given oral administration of a 200 mg tablet of lithium carbonate (Li2CO3) (Mitsubishi Tanabe Pharma Corporation) twice a day and inhalation of 3% H2 twice a day. The test period was 6 months. As the gas containing H2, H2 gas (3%) containing 21% oxygen was generated using a portable H2 generator (Nishijima/Ecore Gas Hydrogen Generator) (H. Ono et al., J Stroke Cerebrovasc Dis 2017; 26:2587-2594.). […] Since lithium carbonate is used as a therapeutic agent for depression and mania (bipolar disorder), and it was reported that patients who ingested lithium carbonate less likely developed dementia, lithium carbonate was used in this Example.
The patients were evaluated by a blind method using the ADAS-cog score.
The ADAS-cog test was conducted every 1 to 2 months. The efficacy of treatment with respect to the ADAS-cog score was determined by comparing the ADAS-cog score at the start of the test with two or three tests during treatment.

[3] = system: dementia patients; conditions: hydrogen gas about 3 to 4% inhaled 1 hour twice a day, 6-month treatment period, six patients
Text: Patients (outpatients in Iryohojin Shadanshinwakai Nishijima Byoin (Numazu-shi, Shizuoka)) in whom rapid deterioration (deterioration by 3 or more points over 1 year) in a cognitive function test such as MMSE or ADAS-cog occured although existing four agents for dementia were used over a long period of time, and improvement is not attained by other ordinary treatment methods.
Patients for whom it is considered difficult to repeatedly inhale hydrogen gas over a long period of time because of severe medical disease, chronic chest disease (chronic obstructive pulmonary disease (COPD), asthma or the like), mouth inflammation or the like.
Patients for whom it is determined from a score in the ADAS-cog cognitive function test that a therapeutic effect is achieved.

[4] = inhalation of H2 gas (3%) containing 21% oxygen; cited from earlier work
[5] = 11 patients including the unresponsive patient, at completion of H2 treatment

For `COc1cc2c(cc1OC)C(=O)C(CC1CCN(Cc3ccccc3)CC1)C2` (centres unmarked) [Donepezil], the “ADAS-cog score of the administration group” value ([1]; after 6 months) is listed as “turned back to the initial value” and the “Change of ADAS-cog score” value ([1]; after 6 weeks) is listed as −3 points.
For `O=C([O-])[O-].[Li+].[Li+]` [lithium, lithium carbonate, reference compound], the “Cognitive function (ADAS-cog) with lithium used alone” value ([2]; after H2 treatment was stopped, lithium alone) was “the cognitive function was not improved”.
In the case of `[HH]` [H2, hydrogen gas], the “Average change of ADAS-cog score with respect to the initial score” value [2, 5] was −3.4, the “Average change of ADAS-cog score with respect to the worst score” value [2, 5] was −8.5 and the “Patients whose ADAS-cog score was improved (decreased) from that at the start time” value ([2]; at the end of the H2 treatment period, 11 patients) was “seven”. For the same compound, the “Worst score: B (ADAS-cog), average” value ([2]; average of 11 patients) was 39.2, the “Final score: C (ADAS-cog), average” value ([2]; average of 11 patients at completion of H2 treatment) was 30.7 and the “Patients with improvement in the ADAS-cog score” value ([2]; combination therapy with H2 and lithium, Alzheimer-type dementia patients) was 10 out of 11. The “Therapeutic effect judged from ADAS-cog score (effective cases)” value [3] was “effective in all of the six patients” and the Blood concentration [4] was “confirmed to increase”.
